Laboratory results reported in BigSolDB 2.1.

Oc1c(Cl)cc(Cl)c2cccnc12
solubility (mole fraction)
Conditions | 293.15 K | 298.15 K | 303.15 K | 308.15 K | 313.15 K | 318.15 K | 323.15 K | 328.15 K | 333.15 K
in 1,4-dioxane | 0.00523 | 0.0062 | 0.00736 | 0.0089 | 0.0106 | 0.0123 | 0.0146 | 0.017 | 0.0193
in DMF | 0.0132 | 0.016 | 0.0194 | 0.024 | 0.0294 | 0.0347 | 0.0408 | 0.0478 | 0.0555
in DMSO | 0.00296 | 0.00378 | 0.0048 | 0.00633 | 0.00793 | 0.00997 | 0.0123 | 0.0154 | 0.0188
in NMP | 0.00576 | 0.00683 | 0.00823 | 0.00963 | 0.0113 | 0.0137 | 0.0162 | 0.0188 | 0.022
in water | 1.02e-06 | 1.48e-06 | 2.03e-06 | 2.82e-06 | 3.82e-06 | 5e-06 | 6.86e-06 | 8.91e-06 | 1.15e-05
